Reference: patent US12435092B2, “Substituted imidazo[1,2-A]quinazolines as inhibitors of PARG” (858 Therapeutics, Inc., priority 2022, dated 2025)

Target: T1, cellular PARG (Homo sapiens, UniProt Q86W56)
T1 construct: endogenous in cells; host or cells: HeLa
Experiment: Nuclear PAR accumulation assay (immunofluorescence high-content imaging)
Format: cell-based
Settings: HeLa cells, 1 hour compound treatment then MMS 50 μg/mL for an additional hour
How it was run: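 HeLa cells pretreated 1 h at 37 °C with compound, then 1 h with 50 μg/mL MMS (final), methanol-fixed and immunostained for PAR with DAPI nuclear counterstain. Nuclear PAR intensity and percent PAR-positive cells quantified by high-content imaging (≥1,000 cells/well). IC50 by four-parameter logistic fit, normalized to 0.1% DMSO and reference-compound controls.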

T1 sequence (Q86W56 whole entry): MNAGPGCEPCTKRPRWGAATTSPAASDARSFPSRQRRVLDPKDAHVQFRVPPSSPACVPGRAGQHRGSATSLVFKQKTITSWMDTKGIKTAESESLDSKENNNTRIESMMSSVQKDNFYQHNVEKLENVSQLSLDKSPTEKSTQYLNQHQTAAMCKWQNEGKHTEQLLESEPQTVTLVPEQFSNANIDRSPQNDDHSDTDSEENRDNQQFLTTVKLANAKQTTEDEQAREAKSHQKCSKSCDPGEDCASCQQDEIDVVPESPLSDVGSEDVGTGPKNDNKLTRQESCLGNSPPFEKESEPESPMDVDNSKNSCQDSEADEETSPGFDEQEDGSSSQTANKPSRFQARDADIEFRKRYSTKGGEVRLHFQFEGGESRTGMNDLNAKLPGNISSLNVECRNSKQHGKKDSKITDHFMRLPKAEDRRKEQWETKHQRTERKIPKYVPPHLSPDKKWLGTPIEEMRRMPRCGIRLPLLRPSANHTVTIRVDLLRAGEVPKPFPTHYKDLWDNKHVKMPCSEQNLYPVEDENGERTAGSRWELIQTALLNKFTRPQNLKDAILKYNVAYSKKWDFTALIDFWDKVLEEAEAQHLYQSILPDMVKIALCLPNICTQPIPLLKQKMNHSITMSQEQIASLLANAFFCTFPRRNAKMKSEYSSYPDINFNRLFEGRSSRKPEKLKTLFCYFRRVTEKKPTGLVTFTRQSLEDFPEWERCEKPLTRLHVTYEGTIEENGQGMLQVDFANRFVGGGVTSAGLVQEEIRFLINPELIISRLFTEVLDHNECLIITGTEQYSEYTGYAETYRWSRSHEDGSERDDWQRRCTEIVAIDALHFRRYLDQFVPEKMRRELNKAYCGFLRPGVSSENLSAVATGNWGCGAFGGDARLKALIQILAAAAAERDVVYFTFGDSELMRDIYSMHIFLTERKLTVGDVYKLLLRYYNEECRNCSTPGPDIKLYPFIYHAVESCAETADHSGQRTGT

| IC50 [nM] | Compound |
| --- | --- |
| ≤ 100 | COC[C@@H]1CN=C2N(Cc3cnn(C)c3)C(=O)c3cc(S(=O)(=O)NC4(C)CC4)ccc3N21 [Example 77, (S)-1-(methoxymethyl)-4-((1-methyl-1H-pyrazol-4-yl)methyl)-N-(1-methylcyclopropyl)-5-oxo-1,2,4,5-tetrahydroimidazo[1,2-a]quinazoline-7-sulfonamide] |
| 100 to 1000 | COC[C@H]1CN=C2N(Cc3cnn(C)c3)C(=O)c3cc(S(=O)(=O)NC4(C)CC4)ccc3N21 [Example 78, (R)-1-(methoxymethyl)-4-((1-methyl-1H-pyrazol-4-yl)methyl)-N-(1-methylcyclopropyl)-5-oxo-1,2,4,5-tetrahydroimidazo[1,2-a]quinazoline-7-sulfonamide] |
| ≤ 100 | Cn1cc(CN2C(=O)c3cc(S(=O)(=O)NC4(C)CC4)ccc3N3C2=N[C@H]2CCC[C@H]23)cn1 [Example 79, (7aS,10aR)-6-((1-methyl-1H-pyrazol-4-yl)methyl)-N-(1-methylcyclopropyl)-5-oxo-6,7a,8,9,10,10a-hexahydro-5H-cyclopenta[4,5]imidazo[1,2-a]quinazoline-3-sulfonamide] |
| ≤ 100 | Cn1cc(CN2C(=O)c3cc(S(=O)(=O)NC4(C)CC4)ccc3N3C2=NC[C@H]3C#CC2CC2)cn1 [Example 83, (R)-1-(cyclopropylethynyl)-4-((1-methyl-1H-pyrazol-4-yl)methyl)-N-(1-methylcyclopropyl)-5-oxo-1,2,4,5-tetrahydroimidazo[1,2-a]quinazoline-7-sulfonamide] |
| 1000 to 10000 | Cn1cc(CN2C(=O)c3cc(S(=O)(=O)NC4(C)CC4)ccc3N3C2=NC[C@@H]3C#CC2CC2)cn1 [Example 84, (S)-1-(cyclopropylethynyl)-4-((1-methyl-1H-pyrazol-4-yl)methyl)-N-(1-methylcyclopropyl)-5-oxo-1,2,4,5-tetrahydroimidazo[1,2-a]quinazoline-7-sulfonamide] |
| ≤ 100 | [2H]C([2H])(c1cnn(C)c1)N1C(=O)c2cc(S(=O)(=O)NC3(C)CC3)ccc2N2C1=NC[C@H]2C(F)(F)F [Example 87, (S)-4-(dideutero(1-methyl-1H-pyrazol-4-yl)methyl)-N-(1-methylcyclopropyl)-5-oxo-1-(trifluoromethyl)-1,2,4,5-tetrahydroimidazo[1,2-a]quinazoline-7-sulfonamide] |
| 100 to 1000 | [2H]C([2H])(c1cnn(C)c1)N1C(=O)c2cc(S(=O)(=O)NC3(C)CC3)ccc2N2C1=NC[C@@H]2C [Example 91, (S)-4-(dideutero(1-methyl-1H-pyrazol-4-yl)methyl)-1-methyl-N-(1-methylcyclopropyl)-5-oxo-1,2,4,5-tetrahydroimidazo[1,2-a]quinazoline-7-sulfonamide] |
| ≤ 100 | Cn1cc(CN2C(=O)c3cc(S(=O)(=O)NC4(C)CC4)ccc3N3C2=N[C@H]2COC[C@H]23)cn1 [Example 93, (7aR,10aS)-6-((1-methyl-1H-pyrazol-4-yl)methyl)-N-(1-methylcyclopropyl)-5-oxo-5,6,7a,8,10,10a-hexahydrofuro[3′,4′:4,5]imidazo[1,2-a]quinazoline-3-sulfonamide] |
| ≤ 100 | CN(C)C[C@@H]1CN=C2N(Cc3cnn(C)c3)C(=O)c3cc(S(=O)(=O)NC4(C)CC4)ccc3N21 [Example 95, (R)-1-((dimethylamino)methyl)-4-((1-methyl-1H-pyrazol-4-yl)methyl)-N-(1-methylcyclopropyl)-5-oxo-1,2,4,5-tetrahydroimidazo[1,2-a]quinazoline-7-sulfonamide] |
| 1000 to 10000 | CN(C)C[C@H]1CN=C2N(Cc3cnn(C)c3)C(=O)c3cc(S(=O)(=O)NC4(C)CC4)ccc3N21 [Example 96, (S)-1-((dimethylamino)methyl)-4-((1-methyl-1H-pyrazol-4-yl)methyl)-N-(1-methylcyclopropyl)-5-oxo-1,2,4,5-tetrahydroimidazo[1,2-a]quinazoline-7-sulfonamide] |
| 100 to 1000 | Cn1cc(CN2C(=O)c3cc(S(=O)(=O)NC4(C)CC4)ccc3N3C2=NC[C@H]3CN)cn1 [Example 97, (R)-1-(aminomethyl)-4-((1-methyl-1H-pyrazol-4-yl)methyl)-N-(1-methylcyclopropyl)-5-oxo-1,2,4,5-tetrahydroimidazo[1,2-a]quinazoline-7-sulfonamide] |
| 100 to 1000 | CNC[C@@H]1CN=C2N(Cc3cnn(C)c3)C(=O)c3cc(S(=O)(=O)NC4(C)CC4)ccc3N21 [Example 99, (R)-4-((1-methyl-1H-pyrazol-4-yl)methyl)-1-((methylamino)methyl)-N-(1-methylcyclopropyl)-5-oxo-1,2,4,5-tetrahydroimidazo[1,2-a]quinazoline-7-sulfonamide] |
| ≤ 100 | Cn1cc(CN2C(=O)c3cc(S(=O)(=O)NC4(C)CC4)ccc3N3CC4(CC4)N=C23)cn1 [Example 100, 4′-((1-methyl-1H-pyrazol-4-yl)methyl)-N-(1-methylcyclopropyl)-5′-oxo-4′,5′-dihydro-1′H-spiro[cyclopropane-1,2′-imidazo[1,2-a]quinazoline]-7′-sulfonamide] |

The next lines start with the molecule.

| Compound | IC50 [nM] |
| --- | --- |
| Cc1nn(C)cc1CN1C(=O)c2cc(S(=O)(=O)NC3(C)CC3)ccc2N2C1=NC[C@H]2C [Example 80, (R)-4-((1,3-dimethyl-1H-pyrazol-4-yl)methyl)-1-methyl-N-(1-methylcyclopropyl)-5-oxo-1,2,4,5-tetrahydroimidazo[1,2-a]quinazoline-7-sulfonamide] | ≤ 100 |
| Cc1c(CN2C(=O)c3cc(S(=O)(=O)NC4(C)CC4)ccc3N3C2=NC[C@H]3C)cnn1C [Example 81, (R)-4-((1,5-dimethyl-1H-pyrazol-4-yl)methyl)-1-methyl-N-(1-methylcyclopropyl)-5-oxo-1,2,4,5-tetrahydroimidazo[1,2-a]quinazoline-7-sulfonamide] | ≤ 100 |
| Cc1nc(C)c([C@@H]2CN=C3N(CC4CC4)C(=O)c4cc(S(=O)(=O)NC5(C)CC5)ccc4N32)s1 [Example 82, (S)-4-(cyclopropylmethyl)-1-(2,4-dimethylthiazol-5-yl)-N-(1-methylcyclopropyl)-5-oxo-1,2,4,5-tetrahydroimidazo[1,2-a]quinazoline-7-sulfonamide] | 100 to 1000 |
| [2H]C([2H])(c1cnn(C)c1)N1C(=O)c2cc(S(=O)(=O)NC3(C)CC3)ccc2N2C1=N[C@H]1CCC[C@H]12 [Example 85, (7aS,10aR)-6-(dideutero(1-methyl-1H-pyrazol-4-yl)methyl)-N-(1-methylcyclopropyl)-5-oxo-6,7a,8,9,10,10a-hexahydro-5H-cyclopenta[4,5]imidazo[1,2-a]quinazoline-3-sulfonamide] | ≤ 100 |
| [2H]C([2H])(c1cnn(C)c1)N1C(=O)c2cc(S(=O)(=O)NC3(C)CC3)c(F)cc2N2C1=NC[C@H]2C [Example 86, (R)-4-(dideutero(1-methyl-1H-pyrazol-4-yl)methyl)-8-fluoro-1-methyl-N-(1-methylcyclopropyl)-5-oxo-1,2,4,5-tetrahydroimidazo[1,2-a]quinazoline-7-sulfonamide] | ≤ 100 |
| [2H]C([2H])(c1cnn(C)c1)N1C(=O)c2cc(S(=O)(=O)NC3(C#N)CC3)ccc2N2C1=N[C@H]1CCC[C@H]12 [Example 88, (7aS,10aR)-N-(1-cyanocyclopropyl)-6-(dideutero(1-methyl-1H-pyrazol-4-yl)methyl)-5-oxo-6,7a,8,9,10,10a-hexahydro-5H-cyclopenta[4,5]imidazo[1,2-a]quinazoline-3-sulfonamide] | ≤ 100 |
| [2H]C([2H])(c1sc(C)nc1C)N1C(=O)c2cc(S(=O)(=O)NC3(C)CC3)ccc2N2C1=NC[C@H]2C [Example 89, (R)-4-(dideutero(2,4-dimethylthiazol-5-yl)methyl)-1-methyl-N-(1-methylcyclopropyl)-5-oxo-1,2,4,5-tetrahydroimidazo[1,2-a]quinazoline-7-sulfonamide] | ≤ 100 |
| C[C@@H]1CN=C2N(Cc3cn(C)nn3)C(=O)c3cc(S(=O)(=O)NC4(C)CC4)ccc3N21 [Example 90, (R)-1-methyl-4-((1-methyl-1H-1,2,3-triazol-4-yl)methyl)-N-(1-methylcyclopropyl)-5-oxo-1,2,4,5-tetrahydroimidazo[1,2-a]quinazoline-7-sulfonamide] | 100 to 1000 |
| [2H]C([2H])(c1cnn(C)c1)N1C(=O)c2cc(S(=O)(=O)NC3(C)CC3)cc(OC)c2N2C1=NC[C@H]2C [Example 92, (R)-4-(dideutero(1-methyl-1H-pyrazol-4-yl)methyl)-9-methoxy-1-methyl-N-(1-methylcyclopropyl)-5-oxo-1,2,4,5-tetrahydroimidazo[1,2-a]quinazoline-7-sulfonamide] | 100 to 1000 |
| Cc1nc(C)c(CN2C(=O)c3cc(S(=O)(=O)NC4CC4)ccc3N3C2=NC[C@H]3C)s1 [Example 94, (R)-N-cyclopropyl-4-((2,4-dimethylthiazol-5-yl)methyl)-1-methyl-5-oxo-1,2,4,5-tetrahydroimidazo[1,2-a]quinazoline-7-sulfonamide] | ≤ 100 |
| [2H]C([2H])(c1sc(C)nc1C)N1C(=O)c2cc(S(=O)(=O)NC3(C)CC3)ccc2N2C1=N[C@H]1COC[C@H]12 [Example 98, (7aR,10aS)-6-(dideutero(2,4-dimethylthiazol-5-yl)methyl)-N-(1-methylcyclopropyl)-5-oxo-5,6,7a,8,10,10a-hexahydrofuro[3′,4′:4,5]imidazo[1,2-a]quinazoline-3-sulfonamide] | ≤ 100 |
| Cn1cc(CN2C(=O)c3cc(S(=O)(=O)NC4(C)CC4)ccc3N3CC4(CCC4)N=C23)cn1 [Example 101, 4′-((1-methyl-1H-pyrazol-4-yl)methyl)-N-(1-methylcyclopropyl)-5′-oxo-4′,5′-dihydro-1′H-spiro[cyclobutane-1,2′-imidazo[1,2-a]quinazoline]-7′-sulfonamide] | ≤ 100 |
| Cn1cc(CN2C(=O)c3cc(S(=O)(=O)NC4(C)CC4)ccc3N3CC4(CC(F)(F)C4)N=C23)cn1 [Example 102, 3,3-difluoro-4′-((1-methyl-1H-pyrazol-4-yl)methyl)-N-(1-methylcyclopropyl)-5′-oxo-4′,5′-dihydro-1′H-spiro[cyclobutane-1,2′-imidazo[1,2-a]quinazoline]-7′-sulfonamide] | ≤ 100 |
